For 26 compounds, Ki results are on record in US20200071326A1, “TAM KINASE INHIBITORS” (Syros Pharmaceuticals, Inc., priority 2017, published 2020).

Structures are written as SMILES. Structures can show the parent of a compound that is named as a salt.

The target of experiment [1] is T1, FLT3 (Homo sapiens, UniProt P36888).
T1 sequence (P36888 27-993): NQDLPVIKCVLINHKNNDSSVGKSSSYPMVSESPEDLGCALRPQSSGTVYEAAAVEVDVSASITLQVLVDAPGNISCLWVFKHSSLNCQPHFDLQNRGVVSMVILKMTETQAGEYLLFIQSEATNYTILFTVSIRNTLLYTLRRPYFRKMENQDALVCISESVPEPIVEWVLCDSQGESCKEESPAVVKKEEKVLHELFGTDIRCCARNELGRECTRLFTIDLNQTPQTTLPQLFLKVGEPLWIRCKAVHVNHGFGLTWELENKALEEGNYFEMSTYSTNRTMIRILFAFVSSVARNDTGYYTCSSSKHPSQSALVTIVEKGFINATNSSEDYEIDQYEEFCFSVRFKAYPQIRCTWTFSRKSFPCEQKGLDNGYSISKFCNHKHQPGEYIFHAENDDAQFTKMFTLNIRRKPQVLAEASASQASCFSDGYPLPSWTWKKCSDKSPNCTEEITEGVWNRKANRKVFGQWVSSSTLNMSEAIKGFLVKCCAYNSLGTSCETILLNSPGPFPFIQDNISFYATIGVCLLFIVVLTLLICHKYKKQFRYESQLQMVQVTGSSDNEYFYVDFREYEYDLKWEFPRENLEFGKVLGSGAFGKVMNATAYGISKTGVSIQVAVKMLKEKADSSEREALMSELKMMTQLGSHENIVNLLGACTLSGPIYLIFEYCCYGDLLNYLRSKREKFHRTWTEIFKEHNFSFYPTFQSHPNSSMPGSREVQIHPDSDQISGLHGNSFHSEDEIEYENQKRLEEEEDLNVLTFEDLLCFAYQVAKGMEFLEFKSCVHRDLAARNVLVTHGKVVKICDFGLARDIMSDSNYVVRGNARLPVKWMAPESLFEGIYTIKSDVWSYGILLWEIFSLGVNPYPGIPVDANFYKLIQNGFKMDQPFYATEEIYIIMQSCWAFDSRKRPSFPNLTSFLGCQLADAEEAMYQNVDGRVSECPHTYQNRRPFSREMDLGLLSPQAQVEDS
Kind of experiment: IMAP fluorescence polarization kinase assay, FLT3. Type of experiment: biochemical. As to conditions: ATP 2.74 μM, enzyme 2.5 nM, 240 minutes, read-out: FLT3 inhibitory constant (Ki). On the procedure: (§1) Activities of compounds against each of TYRO3, AXL, and MERTK as well as against FLT3, were determined using an immobilized metal ion affinity-based fluorescence polarization (“IMAP”) assay. A fluorescently-labeled substrate peptide was phosphorylated in the kinase reaction, after which a binding solution containing large trivalent metal-based nanoparticles was added and the phosphorylated substrate binds to these beads. This reduces the rotational speed of the substrate which is then detected using fluorescence polarization as a read-out.
(§2) The substrates used for each enzyme are as follows: AXL: 5F1-KKKKEEIYFFFG-NH2(SEQ ID NO:1); FLT3: 5F1-KKKKEEIYFFF-NH2 (SEQ ID NO:2); MERTK: 5F1-EFPIYDFLPAKKK-NH2 (SEQ ID NO:3); and TYRO3: 5F1-EFPIYDFLPAKKK-NH2 (SEQ ID NO:4).
(§3) This assay was performed in a 384-well, polystyrene microplate in a final volume of 8 μl. Substrate (final concentration=400 nM), ATP (final concentrations=24.7μM for AXL; 2.74 μM for FLT3; 2.69 μM for MERTK; and 54.0 μM for TYRO3), compounds and enzyme (final concentrations=2.5 nM for AXL, FLT3 and TYRO3; 1.5 nM for MERTK) were pipetted in this order into the appropriate reaction buffer (AXL: 50 mM HEPES, pH 8.0, 1 mM DTT, 10 mM MgCl2, 0.01% BRU35, 0.01% Triton X-100; FLT3: 50 mM HEPES, pH 8.0, 1 mM DTT, 10 mM MgCl2, 0.01% Triton X-100, 0.01% NP40; MERTK/TYRO3: 50 mM HEPES, pH 8.0, 1 mM DTT, 10 mM MgCl2, 0.01% Triton X-100) and incubated at room temperature for varying times (AXL, FLT3 and MERTK: 240 minutes; TYRO3: 60 minutes). IMAP binding solution was then dispensed, the plate incubated for 60 minutes at room temperature and the fluorescence polarization measured. Data were analyzed using XLfit.
A general note: In fluorescence polarisation assays a small probe gives low polarisation when free and higher when bound to something large.

The target of experiment [2] is T2, MERTK (Homo sapiens, UniProt Q12866).
T2 sequence (Q12866 21-999): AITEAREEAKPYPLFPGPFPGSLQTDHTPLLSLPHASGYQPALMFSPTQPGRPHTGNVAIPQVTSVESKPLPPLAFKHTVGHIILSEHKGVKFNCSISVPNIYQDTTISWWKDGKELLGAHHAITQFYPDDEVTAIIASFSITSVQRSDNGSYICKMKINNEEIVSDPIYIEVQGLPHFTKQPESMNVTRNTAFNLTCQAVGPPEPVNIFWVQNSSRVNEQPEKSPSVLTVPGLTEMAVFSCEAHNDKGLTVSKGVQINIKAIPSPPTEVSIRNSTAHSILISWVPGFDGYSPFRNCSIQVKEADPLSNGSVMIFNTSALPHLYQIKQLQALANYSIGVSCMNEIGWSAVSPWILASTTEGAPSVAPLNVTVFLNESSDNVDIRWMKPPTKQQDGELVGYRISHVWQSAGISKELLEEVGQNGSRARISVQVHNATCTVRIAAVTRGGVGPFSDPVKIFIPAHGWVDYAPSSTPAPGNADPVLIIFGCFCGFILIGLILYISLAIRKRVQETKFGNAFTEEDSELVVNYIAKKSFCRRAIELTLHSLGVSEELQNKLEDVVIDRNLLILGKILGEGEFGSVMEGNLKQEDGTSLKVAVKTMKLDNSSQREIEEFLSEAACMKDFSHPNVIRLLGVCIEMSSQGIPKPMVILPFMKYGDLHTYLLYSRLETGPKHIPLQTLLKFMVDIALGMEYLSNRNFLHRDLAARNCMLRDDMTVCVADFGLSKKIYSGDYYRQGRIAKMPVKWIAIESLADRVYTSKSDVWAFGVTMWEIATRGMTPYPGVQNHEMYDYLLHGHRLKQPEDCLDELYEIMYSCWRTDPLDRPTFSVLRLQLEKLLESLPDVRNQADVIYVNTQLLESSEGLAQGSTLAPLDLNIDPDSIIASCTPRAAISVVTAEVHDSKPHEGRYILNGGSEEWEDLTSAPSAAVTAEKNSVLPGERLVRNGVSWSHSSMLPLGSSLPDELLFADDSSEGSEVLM
Kind of experiment: IMAP fluorescence polarization kinase assay, MERTK. The format is biochemical. As to conditions: ATP 2.69 μM, enzyme 1.5 nM, 240 minutes, read-out: MERTK inhibitory constant (Ki). On the procedure: as §1, §2, §3

What is called Ki is the equilibrium dissociation constant of an inhibitor or competing ligand from its target. As for `CCCC(O)c1cc2c(N[C@H]3CC[C@H](N)CC3)c(Br)cnc2[nH]1` (stereo partly shown) [Compound 137], the Ki was 1000 to 10000 nM in experiment [1] and 100 to 1000 nM in experiment [2].

With `CCCC(OC)c1cc2c(N[C@H]3CC[C@H](N)CC3)c(C(=O)Nc3ccc(F)cc3)cnc2[nH]1` (stereo partly shown) [Compound 153], the Ki is over 10000 nM in experiment [1] and 1000 to 10000 nM in experiment [2].

Regarding `CCCc1cc2c(N[C@H]3CC[C@H](N)CC3)c(-c3cnn(C)c3)cnc2[nH]1` [Compound 108, (1r,4r)-N1-(5-(1-methyl-1H-pyrazol-4-yl)-2-propyl-1H-pyrrolo[2,3-b]pyridine-4-yl)cyclohexane-1,4-diamine hydrochloride], the Ki was 100 to 1000 nM in experiment [1] and under 100 nM in experiment [2].

On to `CCCc1cc2c(N[C@H]3CC[C@H](N)CC3)c(-c3ccnc(N4CCCC4)n3)cnc2[nH]1` [Compound 118, (1r,4r)-N1-(2-propyl-5-(2-(pyrrolidin-1-yl)pyrimidin-4-yl)-1H-pyrrolo[2,3-b]pyridine-4-yl)cyclohexane-1,4-diamine hydrochloride], for which the Ki in experiment [1] and in experiment [2] was under 100 nM each time.

`CCCc1cc2c(N[C@H]3CC[C@H](N)CC3)c(C(=O)NC3CCN(c4ncccn4)CC3)cnc2[nH]1` [Compound 141]: the results for the Ki in experiment [1] and in experiment [2] were 100 to 1000 nM and under 100 nM, respectively.

For `CCC(C)c1cc2c(N[C@H]3CC[C@H](O)CC3)c(C(=O)NC3CCN(c4ncccn4)CC3)cnc2[nH]1` (stereo partly shown) [Compound 157], the Ki in experiment [1] is over 10000 nM; in experiment [2], 1000 to 10000 nM.

As to `CCCc1cc2c(N[C@H]3CC[C@H](N)CC3)c(-c3cc(N)ncn3)cnc2[nH]1` [Compound 116], the Ki in experiment [1] and in experiment [2] was under 100 nM each time.

As to `N[C@H]1CC[C@H](Nc2c(C(=O)NCc3ccc(-n4ccnc4)cc3)cnc3[nH]c(C4CCCC4)cc23)CC1` [Compound 126], the Ki in experiment [1] and in experiment [2] was under 100 nM each time.

Regarding `CCCc1cc2c(N[C@H]3CC[C@H](N)CC3)c(-c3ccc(COC(C)C)cn3)cnc2[nH]1` [Compound 130], the Ki in experiment [1] and in experiment [2] was under 100 nM each time.

For the compound `CCCc1cc2c(N[C@H]3CC[C@H](N)CC3)c(C(=O)NC)cnc2[nH]1` [Compound 139], the Ki in experiment [1] and in experiment [2] was under 100 nM in each case.

Turning to `CCCc1cc2c(N[C@H]3CC[C@H](N)CC3)c(-c3cc(OC)ncn3)cnc2[nH]1` [Compound 122], the Ki in experiment [1] and in experiment [2] was under 100 nM throughout.

Regarding `CCCc1cc2c(N[C@H]3CC[C@H](O)CC3)c(C(=O)NCc3ccc(-n4ccnc4)cc3)cnc2[nH]1` [Compound 102], the Ki in experiment [1] and in experiment [2] was under 100 nM in each case.

Consider `CCCc1cc2c(N[C@H]3CC[C@H](N)CC3)c(-c3ccc(N)cn3)cnc2[nH]1` [Compound 120], for which the Ki in experiment [1] and in experiment [2] was under 100 nM in each case.

On to `CC(O)c1cc2c(N[C@H]3CC[C@H](N)CC3)c(C(=O)Nc3ccc(F)cc3)cnc2[nH]1` (stereo partly shown) [Compound 148], for which the Ki in experiment [1] and in experiment [2] was 100 to 1000 nM each time.

`CCCc1cc2c(N[C@H]3CC[C@H](O)CC3)c(-c3ccc(CN4CCOCC4)cc3)cnc2[nH]1` [Compound 106, (1r,4r)-4-((5-(4-(morpholinomethyl)phenyl)-2-propyl-1H-pyrrolo[2,3-b]pyridin-4-yl)amino)cyclohexanol hydrochloride]: the Ki in experiment [1] and in experiment [2] was 100 to 1000 nM in each case.

Regarding `CCc1cc2c(N[C@H]3CC[C@H](N)CC3)c(C(=O)NC3CCN(c4ncccn4)CC3)cnc2[nH]1` [Compound 132], the Ki in experiment [1] and in experiment [2] was under 100 nM throughout.

For `CCc1cc2c(N[C@H]3CC[C@H](O)CC3)c(-c3ccc(CN4CCOCC4)cn3)cnc2[nH]1` [Compound 144], the Ki in experiment [1] and in experiment [2] was under 100 nM throughout.

For `CCCc1cc2c(N[C@H]3CC[C@H](O)CC3)c(-c3ccc(CNCC45C[C@H]6C[C@@H](C4)C[C@@H](C5)C6)cn3)cnc2[nH]1` [Compound 109], the Ki in experiment [1] and in experiment [2] was under 100 nM in each case.

Regarding `CCCc1cc2c(N[C@H]3CC[C@H](N)CC3)c(C(=O)OC)cnc2[nH]1` [Compound 140], the Ki in experiment [1] and in experiment [2] was under 100 nM in each case.

For `CCC[C@@H](C)c1cc2c(N[C@H]3CC[C@H](N)CC3)c(C(=O)Nc3ccc(F)cc3)cnc2[nH]1` [Compound 150], the Ki in experiment [1] is 1000 to 10000 nM; in experiment [2], under 100 nM.

As for `COC(C)c1cc2c(N[C@H]3CC[C@H](N)CC3)c(C(=O)Nc3ccc(F)cc3)cnc2[nH]1` (stereo partly shown) [Compound 145], the Ki in experiment [1] was in the range of 1000 to 10000 nM; in experiment [2], 100 to 1000 nM.

Take `CC[C@H](C)c1cc2c(N[C@H]3CC[C@H](N)CC3)c(C(=O)Nc3ccc(F)cc3)cnc2[nH]1` [Compound 156]: the Ki is 100 to 1000 nM in experiment [1] and under 100 nM in experiment [2].

For `C#Cc1cc2c(N[C@H]3CC[C@H](N)CC3)c(C(=O)Nc3ccc(F)cc3)cnc2[nH]1` [Compound 128, [4-1(4-aminocyclohexyl)amino]-2-ethynyl-N-(4-fluorophenyl)-1H-pyrrolo[2,3-b]pyridine-5-carboxamide], the Ki in experiment [1] is under 100 nM; in experiment [2], 100 to 1000 nM.

For `CCC(C)c1cc2c(N[C@H]3CC[C@H](O)CC3)c(C(=O)NC3CCN(C4=NCCCN4)CC3)cnc2[nH]1` (stereo partly shown) [Compound 158], the Ki in experiment [1] is 100 to 1000 nM; in experiment [2] it was under 100 nM.

`CCC(OC)c1cc2c(N[C@H]3CC[C@H](N)CC3)c(C(=O)Nc3ccc(F)cc3)cnc2[nH]1` (stereo partly shown) [Compound 146]: the Ki fell in the range of 1000 to 10000 nM in experiment [1] and 100 to 1000 nM in experiment [2].

Consider `CCCc1cc2c(N[C@H]3CC[C@H](O)CC3)c(C(=O)Nc3ccc(F)cc3)cnc2[nH]1` [Compound 101], for which the Ki in experiment [1] and in experiment [2] was 100 to 1000 nM each time.
